Data as given in patent publication US20250084039A1, “4-SUBSTITUTED AMINOISOQUINOLINE DERIVATIVES” (Purdue Research Foundation, priority 2016, published 2025).
Like-named read-outs stand apart in the source and are kept apart here.

How the values were obtained:
AKT1 = AKT1 (Homo sapiens (Human), UniProt P31749); assay: Reaction Biology HotSpot kinase assay; format: biochemical; settings: 500 nM compound; read-out: Percentage kinase inhibition AKT1
Outline: (§1)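 Compounds were screened at one concentration, 500 nM, in a radiometric kinase reaction. After a 20-minute preincubation with enzyme and substrate in pH 7.5 HEPES buffer (1% DMSO), the mixture received 100 μM ATP containing [γ-33P]ATP and was left 2 h at room temperature.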

ALK = ALK (Homo sapiens (Human), UniProt Q9UM73); assay: Reaction Biology HotSpot kinase assay; format: biochemical; settings: 500 nM compound; read-out: Percentage kinase inhibition ALK
Outline: (§2)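 Each compound was tested at 500 nM, with 33P incorporation from ATP (100 μM final, including [γ-33P]ATP) measured by P81 paper capture after a 2 h room-temperature reaction.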

AXL = AXL (Homo sapiens (Human), UniProt P30530); assay: Reaction Biology HotSpot kinase assay; format: biochemical; settings: 500 nM compound; read-out: Percentage kinase inhibition AXL
Sequence of AXL (P30530 26-894): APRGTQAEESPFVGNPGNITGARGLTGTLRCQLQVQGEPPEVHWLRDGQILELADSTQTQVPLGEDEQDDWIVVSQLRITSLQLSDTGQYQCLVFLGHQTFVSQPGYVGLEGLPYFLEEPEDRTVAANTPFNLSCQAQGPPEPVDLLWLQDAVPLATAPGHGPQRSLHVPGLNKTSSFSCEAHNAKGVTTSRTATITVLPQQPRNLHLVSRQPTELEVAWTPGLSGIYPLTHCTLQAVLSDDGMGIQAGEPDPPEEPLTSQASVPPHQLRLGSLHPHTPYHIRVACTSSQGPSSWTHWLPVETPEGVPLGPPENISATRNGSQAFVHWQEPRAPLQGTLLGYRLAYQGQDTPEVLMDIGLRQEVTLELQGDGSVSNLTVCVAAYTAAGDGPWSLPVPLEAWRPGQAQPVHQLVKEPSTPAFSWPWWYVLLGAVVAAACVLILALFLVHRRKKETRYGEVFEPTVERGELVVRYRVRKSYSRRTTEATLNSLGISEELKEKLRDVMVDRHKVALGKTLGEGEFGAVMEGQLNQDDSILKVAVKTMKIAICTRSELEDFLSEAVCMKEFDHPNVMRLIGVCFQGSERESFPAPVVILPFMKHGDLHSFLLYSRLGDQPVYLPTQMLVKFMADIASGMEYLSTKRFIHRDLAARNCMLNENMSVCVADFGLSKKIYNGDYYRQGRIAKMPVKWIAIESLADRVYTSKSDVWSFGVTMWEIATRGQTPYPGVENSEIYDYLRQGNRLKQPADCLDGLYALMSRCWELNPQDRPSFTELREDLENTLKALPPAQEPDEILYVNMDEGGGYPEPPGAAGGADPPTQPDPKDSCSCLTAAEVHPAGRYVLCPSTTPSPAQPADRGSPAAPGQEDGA
Outline: (§3)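 Phosphotransfer from [γ-33P]ATP was quantified after filter binding on P81 paper. Conditions: 20 mM HEPES pH 7.5, 10 mM MgCl2, 0.1 mM Na3VO4, 2 mM DTT, 0.02 mg/mL BSA; ATP 100 μM final; 2 h at room temperature. Compound was dosed at 500 nM.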

BRAF = BRAF (Homo sapiens (Human), UniProt P15056); assay: Reaction Biology HotSpot kinase assay; format: biochemical; settings: 500 nM compound; read-out: Percentage kinase inhibition BRAF
Outline: as §3

BTK = BTK (Homo sapiens (Human), UniProt Q06187); assay: Reaction Biology HotSpot kinase assay; format: biochemical; settings: 500 nM compound; read-out: Percentage kinase inhibition BTK
Outline: as §2

EGFR = EGFR (Homo sapiens (Human), UniProt P00533); assay: Reaction Biology HotSpot kinase assay; format: biochemical; settings: 500 nM compound; read-out: Percentage kinase inhibition EGFR
Outline: as §2

EPHA5 = EPHA5 (Homo sapiens (Human), UniProt P54756); assay: Reaction Biology HotSpot kinase assay; format: biochemical; settings: 500 nM compound; read-out: Percentage kinase inhibition EPHA5
Outline: as §2

EPHB2 = EPHB2 (Homo sapiens (Human), UniProt P29323); assay: Reaction Biology HotSpot kinase assay; format: biochemical; settings: 500 nM compound; read-out: Percentage kinase inhibition EPHB2
Sequence of EPHB2 (P29323 19-1055): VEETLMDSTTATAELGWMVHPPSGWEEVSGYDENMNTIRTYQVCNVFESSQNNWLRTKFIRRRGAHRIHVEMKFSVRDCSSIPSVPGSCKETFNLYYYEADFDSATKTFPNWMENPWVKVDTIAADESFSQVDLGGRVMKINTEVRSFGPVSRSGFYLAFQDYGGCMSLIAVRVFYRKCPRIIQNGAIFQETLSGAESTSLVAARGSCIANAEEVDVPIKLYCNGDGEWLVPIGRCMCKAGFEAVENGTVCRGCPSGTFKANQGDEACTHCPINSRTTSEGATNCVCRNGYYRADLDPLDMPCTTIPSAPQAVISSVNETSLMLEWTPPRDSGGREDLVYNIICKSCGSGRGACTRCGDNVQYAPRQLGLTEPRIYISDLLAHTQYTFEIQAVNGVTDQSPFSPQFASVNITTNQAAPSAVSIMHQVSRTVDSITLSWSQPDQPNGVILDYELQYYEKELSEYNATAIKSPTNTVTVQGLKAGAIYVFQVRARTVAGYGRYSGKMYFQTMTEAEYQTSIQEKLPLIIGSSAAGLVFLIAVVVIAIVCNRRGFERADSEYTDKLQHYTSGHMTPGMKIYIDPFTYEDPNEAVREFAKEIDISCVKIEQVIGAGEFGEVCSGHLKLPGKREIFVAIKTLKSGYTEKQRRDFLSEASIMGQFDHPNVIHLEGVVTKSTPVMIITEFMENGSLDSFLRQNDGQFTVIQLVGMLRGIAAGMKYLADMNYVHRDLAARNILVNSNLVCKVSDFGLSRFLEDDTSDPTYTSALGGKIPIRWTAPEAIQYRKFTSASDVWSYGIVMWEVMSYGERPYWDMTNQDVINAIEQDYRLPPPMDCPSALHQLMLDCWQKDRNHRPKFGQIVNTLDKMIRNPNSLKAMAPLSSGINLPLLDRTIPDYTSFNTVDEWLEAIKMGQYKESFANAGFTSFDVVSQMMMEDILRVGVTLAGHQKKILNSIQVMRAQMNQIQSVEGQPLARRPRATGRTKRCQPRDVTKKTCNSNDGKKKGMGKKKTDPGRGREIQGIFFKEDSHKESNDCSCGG
Outline: as §2

ERBB2/HER2 = ERBB2/HER2 (Homo sapiens (Human), UniProt P04626); assay: Reaction Biology HotSpot kinase assay; format: biochemical; settings: 500 nM compound; read-out: Percentage kinase inhibition ERBB2/HER2
Outline: as §2

FGFR1 = FGFR1 (Homo sapiens (Human), UniProt P11362); assay: Reaction Biology HotSpot kinase assay; format: biochemical; settings: 500 nM compound; read-out: Percentage kinase inhibition FGFR1
Outline: as §1

FGR = FGR (Homo sapiens (Human), UniProt P09769); assay: Reaction Biology HotSpot kinase assay; format: biochemical; settings: 500 nM compound; read-out: Percentage kinase inhibition FGR
Outline: as §2

FLT1/VEGFR1 = FLT1/VEGFR1 (Homo sapiens (Human), UniProt P17948); assay: Reaction Biology HotSpot kinase assay; format: biochemical; settings: 500 nM compound; read-out: Percentage kinase inhibition FLT1/VEGFR1
Outline: as §2

FLT3 = FLT3 (Homo sapiens (Human), UniProt P36888); assay: Reaction Biology HotSpot kinase assay; format: biochemical
Sequence of FLT3 (P36888 27-993): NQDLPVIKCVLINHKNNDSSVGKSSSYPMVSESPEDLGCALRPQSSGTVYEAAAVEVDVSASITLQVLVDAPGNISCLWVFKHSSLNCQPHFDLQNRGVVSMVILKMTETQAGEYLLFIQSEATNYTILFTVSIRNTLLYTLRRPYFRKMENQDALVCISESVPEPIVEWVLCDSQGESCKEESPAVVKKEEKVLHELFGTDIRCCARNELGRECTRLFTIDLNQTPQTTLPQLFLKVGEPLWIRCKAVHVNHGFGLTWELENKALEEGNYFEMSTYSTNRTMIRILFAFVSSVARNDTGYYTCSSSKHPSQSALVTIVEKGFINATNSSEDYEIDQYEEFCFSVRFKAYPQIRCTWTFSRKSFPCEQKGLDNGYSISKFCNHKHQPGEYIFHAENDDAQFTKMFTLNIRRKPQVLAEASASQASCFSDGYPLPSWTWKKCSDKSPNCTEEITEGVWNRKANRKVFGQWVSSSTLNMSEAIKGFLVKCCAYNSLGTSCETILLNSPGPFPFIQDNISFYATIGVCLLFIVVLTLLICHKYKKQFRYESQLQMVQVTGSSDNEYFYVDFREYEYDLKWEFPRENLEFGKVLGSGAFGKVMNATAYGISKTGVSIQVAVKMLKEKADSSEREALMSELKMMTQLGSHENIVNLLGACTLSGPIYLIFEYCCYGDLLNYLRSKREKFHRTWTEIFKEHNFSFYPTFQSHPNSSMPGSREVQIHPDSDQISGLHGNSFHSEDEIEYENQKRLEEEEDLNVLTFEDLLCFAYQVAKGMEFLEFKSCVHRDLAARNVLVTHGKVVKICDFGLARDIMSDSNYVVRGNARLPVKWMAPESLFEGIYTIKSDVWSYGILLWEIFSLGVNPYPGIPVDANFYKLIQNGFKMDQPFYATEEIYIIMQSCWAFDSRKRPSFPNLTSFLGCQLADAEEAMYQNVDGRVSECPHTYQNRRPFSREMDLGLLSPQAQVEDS
Outline: as §1

FLT4/VEGFR3 = FLT4/VEGFR3 (Homo sapiens (Human), UniProt P35916); assay: Reaction Biology HotSpot kinase assay; format: biochemical; settings: 500 nM compound; read-out: Percentage kinase inhibition FLT4/VEGFR3
Outline: as §2

KDR/VEGFR2 = KDR/VEGFR2 (Homo sapiens (Human), UniProt P35968); assay: Reaction Biology HotSpot kinase assay; format: biochemical; settings: 500 nM compound; read-out: Percentage kinase inhibition KDR/VEGFR2
Sequence of KDR/VEGFR2 (P35968 20-1356): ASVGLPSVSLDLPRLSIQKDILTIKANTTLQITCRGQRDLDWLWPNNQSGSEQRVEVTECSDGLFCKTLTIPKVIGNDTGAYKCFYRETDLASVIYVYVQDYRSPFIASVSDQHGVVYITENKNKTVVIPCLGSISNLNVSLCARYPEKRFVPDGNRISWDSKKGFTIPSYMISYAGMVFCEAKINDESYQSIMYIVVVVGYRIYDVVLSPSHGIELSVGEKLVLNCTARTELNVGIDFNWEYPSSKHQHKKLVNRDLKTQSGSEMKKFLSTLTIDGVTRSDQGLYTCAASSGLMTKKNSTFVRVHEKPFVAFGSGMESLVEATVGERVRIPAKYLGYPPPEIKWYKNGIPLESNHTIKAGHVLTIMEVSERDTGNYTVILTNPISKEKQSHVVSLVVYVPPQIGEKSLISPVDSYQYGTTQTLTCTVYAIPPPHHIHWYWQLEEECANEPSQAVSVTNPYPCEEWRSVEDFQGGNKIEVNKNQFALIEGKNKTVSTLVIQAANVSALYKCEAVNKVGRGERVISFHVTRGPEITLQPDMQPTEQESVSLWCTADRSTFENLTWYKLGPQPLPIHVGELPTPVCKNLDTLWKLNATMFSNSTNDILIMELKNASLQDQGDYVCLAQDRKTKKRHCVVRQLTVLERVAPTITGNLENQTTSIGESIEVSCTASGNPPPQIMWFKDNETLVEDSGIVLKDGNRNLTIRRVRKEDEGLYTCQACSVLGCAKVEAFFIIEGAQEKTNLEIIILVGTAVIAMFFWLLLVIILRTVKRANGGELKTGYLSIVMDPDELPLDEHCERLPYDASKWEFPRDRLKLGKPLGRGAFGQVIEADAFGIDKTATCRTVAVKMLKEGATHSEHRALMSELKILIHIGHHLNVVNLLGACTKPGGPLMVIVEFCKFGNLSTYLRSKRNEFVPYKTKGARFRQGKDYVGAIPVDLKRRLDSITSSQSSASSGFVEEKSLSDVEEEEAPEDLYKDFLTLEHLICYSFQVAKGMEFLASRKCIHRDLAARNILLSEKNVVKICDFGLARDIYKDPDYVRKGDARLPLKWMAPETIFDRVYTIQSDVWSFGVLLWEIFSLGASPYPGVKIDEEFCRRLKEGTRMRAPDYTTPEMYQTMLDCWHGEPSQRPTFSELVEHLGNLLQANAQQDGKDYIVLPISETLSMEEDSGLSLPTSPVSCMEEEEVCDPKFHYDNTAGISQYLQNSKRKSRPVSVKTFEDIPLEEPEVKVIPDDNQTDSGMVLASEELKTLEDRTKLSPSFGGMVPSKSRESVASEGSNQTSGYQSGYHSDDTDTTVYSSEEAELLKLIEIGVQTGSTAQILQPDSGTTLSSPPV
Outline: as §2

PDGFRa = PDGFRa (Homo sapiens (Human), UniProt P16234); assay: Reaction Biology HotSpot kinase assay; format: biochemical; settings: 500 nM compound; read-out: Percentage kinase inhibition PDGFRa
Outline: as §2

PKCa = PKCa (Homo sapiens (Human), UniProt P17252); assay: Reaction Biology HotSpot kinase assay; format: biochemical; settings: 500 nM compound; read-out: Percentage kinase inhibition PKCa
Outline: as §2

ROS/ROS1 = ROS/ROS1 (Homo sapiens (Human), UniProt P08922); assay: Reaction Biology HotSpot kinase assay; format: biochemical; settings: 500 nM compound; read-out: Percentage kinase inhibition ROS/ROS1
Outline: as §2

TIE2/TEK = TIE2/TEK (Homo sapiens (Human), UniProt Q02763); assay: Reaction Biology HotSpot kinase assay; format: biochemical; settings: 500 nM compound; read-out: Percentage kinase inhibition TIE2/TEK
Outline: as §2

TRKB = TRKB (Homo sapiens (Human), UniProt Q16620); assay: Reaction Biology HotSpot kinase assay; format: biochemical; settings: 500 nM compound; read-out: Percentage kinase inhibition TRKB
Sequence of TRKB (Q16620 32-822): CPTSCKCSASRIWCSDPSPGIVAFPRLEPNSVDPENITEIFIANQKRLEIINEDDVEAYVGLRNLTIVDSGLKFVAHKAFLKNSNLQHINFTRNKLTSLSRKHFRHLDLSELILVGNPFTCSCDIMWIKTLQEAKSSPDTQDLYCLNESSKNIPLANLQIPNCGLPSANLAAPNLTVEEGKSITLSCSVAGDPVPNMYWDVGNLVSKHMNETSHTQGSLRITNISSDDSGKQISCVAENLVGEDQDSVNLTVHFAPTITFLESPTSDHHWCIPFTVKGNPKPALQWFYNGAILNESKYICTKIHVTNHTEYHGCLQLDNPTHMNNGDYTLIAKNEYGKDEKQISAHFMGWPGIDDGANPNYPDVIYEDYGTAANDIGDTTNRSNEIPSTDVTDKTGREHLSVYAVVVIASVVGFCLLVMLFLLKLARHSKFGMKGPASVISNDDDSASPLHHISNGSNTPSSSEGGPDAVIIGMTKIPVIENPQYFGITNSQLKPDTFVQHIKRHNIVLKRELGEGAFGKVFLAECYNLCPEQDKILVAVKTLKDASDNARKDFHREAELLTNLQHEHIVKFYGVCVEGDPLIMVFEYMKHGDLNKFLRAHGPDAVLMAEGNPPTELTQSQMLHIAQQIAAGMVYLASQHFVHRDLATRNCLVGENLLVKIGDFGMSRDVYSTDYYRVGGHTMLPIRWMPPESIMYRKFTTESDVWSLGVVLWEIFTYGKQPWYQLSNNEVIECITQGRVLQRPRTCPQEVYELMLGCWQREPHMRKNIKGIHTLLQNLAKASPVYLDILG
Outline: as §2

YES/YES1 = YES/YES1 (Homo sapiens (Human), UniProt P07947); assay: Reaction Biology HotSpot kinase assay; format: biochemical; settings: 500 nM compound; read-out: Percentage kinase inhibition YES/YES1
Outline: as §2

c-MER = c-MER (Homo sapiens (Human), UniProt Q12866); assay: Reaction Biology HotSpot kinase assay; format: biochemical; settings: 500 nM compound; read-out: Percentage kinase inhibition c-MER
Outline: as §2

c-Met = c-Met (Homo sapiens (Human), UniProt P08581); assay: Reaction Biology HotSpot kinase assay; format: biochemical; settings: 500 nM compound; read-out: Percentage kinase inhibition c-Met
Outline: as §2

K562 = assay: IC50 proliferation assay (Alamar Blue, 72 h); format: cell-based; settings: Homo sapiens
MV4-11 = assay: IC50 proliferation assay (Alamar Blue, 72 h); format: cell-based; settings: Homo sapiens, MV4-11, 72 h; read-out: IC50 (proliferation inhibition) Cell line - MV4-11
Outline: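 Cells seeded ~18 h before treatment with semi-serial compound dilutions made in DMSO then growth medium. After 72 h exposure, Alamar Blue added and read following 4 h further at 37 °C; IC50 for proliferation inhibition.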

With Cc1ccc(C(=O)Nc2ccc(CN3CCN(C)CC3)c(C(F)(F)F)c2)cc1C#Cc1cnc(N)c2ncccc12 [HSN356, 3-((8-amino-1,7-naphthyridin-5-yl)ethynyl)-4-methyl-N-(4-((4-methylpiperazin-1-yl)methyl)-3-(trifluoromethyl)phenyl)benzamide] the inhibition at 0.5 µM (AKT1) was 0%, the inhibition at 0.5 µM (ALK) was 0% and the inhibition at 0.5 µM (AXL) was 4%. It also gave an inhibition at 0.5 µM (BRAF) of 100%, an inhibition at 0.5 µM (BTK) of 65% and an inhibition at 0.5 µM (EGFR) of 59%. For the same molecule, the inhibition at 0.5 µM (EPHA5) was 96%, the inhibition at 0.5 µM (EPHB2) was 100% and the inhibition at 0.5 µM (ERBB2/HER2) was 64%. It also gave an inhibition at 0.5 µM (FGFR1) of 96%, an inhibition at 0.5 µM (FGR) of 99% and an inhibition at 0.5 µM (FLT1/VEGFR1) of 94%. For the same molecule, the “% inhibition of FLT3 activity” value (FLT3) was 99%, the inhibition at 0.5 µM (FLT3; read-out: % inhibition of FLT3 activity) was 98% and the inhibition at 0.5 µM (FLT4/VEGFR3) was 94%. The inhibition at 0.5 µM (KDR/VEGFR2) was 97%, the inhibition at 0.5 µM (PDGFRa) was 92% and the inhibition at 0.5 µM (PKCa) was 0%. It also gave an inhibition at 0.5 µM (ROS/ROS1) of 0%, an inhibition at 0.5 µM (TIE2/TEK) of 100% and an inhibition at 0.5 µM (TRKB) of 75%. The inhibition at 0.5 µM (YES/YES1) was 100%, the inhibition at 0.5 µM (c-MER) was 0% and the inhibition at 0.5 µM (c-Met) was 15%. The IC50 (K562; K562, 72 h, read-out: IC50 (proliferation inhibition) Cell line - K562) was 2 nM, the IC50 (K562; K562, Table 18, read-out: Inhibition of proliferation of K562 cell lines (CML)) was 1.8 ± 0.03 nM and the IC50 (MV4-11) was 0.4 nM.
